Read-outs that look alike come from different tables or passages of the source.
Key:
HCV genotype 1b replicon = test: HCV Replicon Assay; type: cell-based; details: Zluc (Huh-7-derived) cells, HCV genotype 1b replicon, luciferase reporter, 72 hours, read-out: HCV Replicon EC50
Experimental: Huh-7-derived cell line (Zluc) that harbors an HCV genotype 1b replicon and a luciferase reporter gene was grown in Dulbecco's Modified Eagle Medium (DMEM) supplemented with 10% fetal bovine serum, 2 mM GlutaMAX, 1% MEM nonessential amino acids, 100 IU/mL penicillin, 100 μg/mL streptomycin, and 0.5 mg/mL Geneticin® (G418). For dose response testing the cells were seeded in 96-well plates at 7.5×10^3 cells per well in a volume of 50 μL, and incubated at 37° C./5% CO2. Drug solutions were made up freshly in Huh-7 media as 2× stocks. Ten additional 5-fold dilutions were prepared from these stocks in DMEM without G418. At least three hours after Zluc cells were seeded, drug treatment was initiated by adding 50 μL of drug dilutions to the plates in duplicate. Final concentrations of drug ranged from 100 μM to […]. Cells were then incubated at 37° C./5% CO2. Alternatively, compounds were tested at two concentrations (1 μM and 10 μM). […] For this, media was removed from the plates via gentle tapping. Fifty microliters of ONE-glo luciferase assay reagent was added to each well. The plates were shaken gently for 3 min at room temperature and luminescence was measured on a Victor^3 V 1420 multilabel counter (Perkin Elmer) with a 1 second read time using a 700 nm cut-off filter. The EC50 values were calculated from dose response curves from the resulting best-fit equations determined by Microsoft Excel and XLfit 4.1 software. When screening at two fixed concentrations, the results were expressed as % inhibition at 1 μM and 10 μM.

[1] = Cytotoxicity evaluation (CellTiter-Blue Cell Viability Assay); type: cell-based, human; details: human, Zluc cells, read-out: HCV Replicon CC50
[2] = Stability in simulated intestinal fluid; type: in vitro ADME; details: 100 μM, 2 hours at 37° C.; percent of peak area at time zero
Experimental: Stability in Simulated Gastric and Intestinal Fluids: Simulated gastric and intestinal fluids containing pepsin and pancreatin respectively were prepared according to the U.S. Pharmacopoeia USP291 procedure (www.pharmacopeia.cn/v29240/usp29nf24s0_ris1s126.html). Test compound (final concentration 100 μM) was incubated in duplicate in the appropriate fluid for 2 hours at 37° C. The samples were quenched with 200 μl cold acetonitrile, vortexed for 30 seconds and then centrifuged at 16,100 g for 10 min. The supernatants were analyzed by HPLC on a C-18 column with UV detection at 252 nm. The time 0 samples were prepared by adding SGF or SIF fluid to the quenching solvent followed by the test compound. Stability of the compound was determined by peak area the test compound after incubation and calculated as percent of the peak area observed at time zero.

[3] = Stability in fresh human whole blood; type: in vitro ADME; details: 0.5 μM, percent unchanged test compound
Experimental: (§1) Stability in Fresh Whole Blood: Stability of test compounds were determined in fresh human whole blood with K2EDTA as the anticoagulant (stored refrigerated at 2-8° C. and used within 7 days of receipt). The experiment was conducted with three replicates for each time point. Whole blood, pre-incubated at 37° C. for 10-15 minutes, was fortified with a solution of test compound for a final concentration of 0.5 μM and mixed for 30 sec. At intervals (0, 0.5, 1 and 2 hr), three 50-μL aliquots were combined with 200 μL (each) of an ice-cold solution of the internal standard (carbutamide 500 ng/mL in acetonitrile). The samples were vortexed for 30 sec and then centrifuged at 16,100 g for 5 min. The supernatant was analyzed by LC-MS/MS. The MS peak area ratio of the test compound versus the internal standard was calculated and percent unchanged test compound was calculated for each time point using this ratio.

Stability in mouse blood = type: in vitro ADME; details: on ice, percent unchanged test compound
Experimental: as §1
The stability in mouse blood was determined on ice at 0, 0.5 and 1 hr as above.

[4] = Stability in human liver microsomes; type: in vitro ADME; details: 10 μM, 1.0 mg/mL protein, NADPH, 60 min; percent unchanged
Experimental: Stability in Liver and Intestinal Subcellular Fractions: Stability of test compounds were determined in subcellular fractions (microsomes and S9) of human liver and intestine in duplicate for each matrix. Pooled liver and intestinal microsomal, intestinal and liver S9 proteins (1.0 mg/mL), suspended in incubation buffer (100 mM potassium phosphate, pH 7.4, 5 mM MgCl2, and 0.1 mM EDTA), were preincubated for 5 min at 37° C. with 10 μM of a test compound from a 10 mM stock solution in DMSO (final DMSO concentration was 0.1%); the reaction was initiated by the addition of NADPH (3 mM final concentration). At specific times (0 and 60 min), 0.1 mL samples were taken and the reaction terminated by the addition of 4 volumes of stop solution (acetonitrile with 500 ng/mL carbutamide as an internal standard). The samples were vortexed for 30 sec and then centrifuged at 16,000 g for 10 min. 100 μL of supernatants were transferred to 96 deep-well plates preloaded with 100 μL distilled water and analyzed after mixing by LC-MS/MS. The MS peak area ratio of the test compound versus the internal standard was calculated and percent unchanged test compound over 60 minutes was calculated using this ratio.

fresh human hepatocytes = test: Release of active metabolite in fresh human hepatocytes; type: in vitro ADME; details: 10 μM
Experimental: Assay for the Release of Active Metabolite in Primary Hepatocytes: Plates of fresh human and mouse hepatocytes were obtained on ice. The medium was removed and replaced with hepatocyte culture medium (William's E supplemented with penicillin-streptomycin, 1% L-glutamine, 1% insulin-transferrin-selenium and 0.1 μM Dexamethasone (Invitrogen) or with Invitro GRO HI medium complemented with Torpedo antibiotics (Celsis)). Cells were left overnight in an incubator at 37° C. to acclimatize to culture and the medium.
Hepatocyte incubations were conducted at a final volume of 0.5 mL hepatocyte culture medium/well (0.8 million cells/well for human and 0.5 million cells/well for mouse; 12 well plate no overlay, collagen coat). Culture medium from overnight incubation of cells was removed and replaced with fresh medium, pre-warmed to 37° C., containing 10 μM of test compound from a stock solution in DMSO (final DMSO concentration was 0.1%). At each specific time point, incubation medium was removed and cell monolayers were carefully washed two times with ice-cold PBS. Following the last wash, all PBS was carefully removed and 1.0 mL of extraction solution (ice-cold 70% methanol/30% water) added. Cells were scraped off and suspended in the extraction solution, transferred to 2 mL polypropylene microfuge tubes and intracellular contents extracted overnight at −20° C.
After the overnight treatment the cellular extracts were prepared by centrifugation at 16,000×g for 10 min to remove cellular debris. The remaining sample was then dried using a refrigerated centrivap concentrator. Dry extracts were reconstituted in 1000 μL of HPLC-grade water and centrifuged at 16,000×g for 10 min. Aliquots (100 μL each) of the supernatant were transferred into a 96 well plate and internal standard (4 ng/mL final concentration) was added as the internal standard (IS) for LC-MS/MS analysis.
The incubation time points were 6, 24 and 48 hours for human hepatocytes and 1, 4, 8, 12 and 24 hours for mouse hepatocytes.

Zluc cells = test: Cytotoxicity evaluation (CellTiter-Blue Cell Viability Assay); type: cell-based, human; details: read-out: HCV Replicon CC50

Row | SMILES | EC50 (HCV genotype 1b replicon; Hepatitis C virus, 72 h) [nM] | CC50 [1] [nM] | Stability SIF [2] | Stability WB_Human (37° C.; 2 hr) [3] [%] | Stability WB_Mouse (ice; 1 hr) (Stability in mouse blood) [%] | Stability HLM (1 hr) [4] [%] | FHH TP AUC (pmol · hr/mill cells) (fresh human hepatocytes) | EC50 (HCV genotype 1b replicon) [nM] | CC50 (Zluc cells) [nM]
1 | CCOc1nc(N)nc2c1ncn2[C@@H]1O[C@@H]2COP(=O)(NCCC(=O)OC(C)C)O[C@H]2[C@@]1(C)F (single isomer, unassigned) [Compound 2 Diastereomer 1] | 250 to 1000 | > 50000 | 98% | 98 | 15 | 6.7 | BLD^a |  | 
2 | CCOc1nc(N)nc2c1ncn2[C@@H]1O[C@@H]2COP(=O)(N[C@@H](C)C(=O)OCC(C)C)O[C@H]2[C@@]1(C)F (single isomer, unassigned) [Compound 4 Diastereomer 1] | < 250 | > 50000 | 42% | 77 | 1 |  | 1759 pmol · hr/mill cells |  | 
3 | CCOc1nc(N)nc2c1ncn2[C@@H]1O[C@@H]2COP(=O)(N[C@@H](C)C(=O)OCC(C)C)O[C@H]2[C@@]1(C)F (single isomer, unassigned) [Compound 4 Diastereomer 2] |  |  | BLD^a | 1 |  |  | 1575 pmol · hr/mill cells | < 250 | > 50000
4 | CCOc1nc(N)nc2c1ncn2[C@@H]1O[C@@H]2COP(=O)(N[C@@H](C)C(=O)OC(C)C)O[C@H]2[C@@]1(C)O (single isomer, unassigned) [Compound 5 Diastereomer 1] |  | > 50000 | 5% | 87 |  |  | 3615 pmol · hr/mill cells | 250 to 1000 | 
5 | CCOc1nc(N)nc2c1ncn2[C@@H]1O[C@@H]2COP(=O)(N[C@@H](C)C(=O)OC(C)C)O[C@H]2[C@@]1(C)O (single isomer, unassigned) [Compound 5 Diastereomer 2] |  |  | 77% | 83 |  |  | 2108 pmol · hr/mill cells | 1000 to 10000 | > 50000
6 | CCOC(=O)C(C)(C)NP1(=O)OC[C@H]2O[C@@H](n3cnc4c(OCC)nc(N)nc43)[C@](C)(F)[C@@H]2O1 (single isomer, unassigned) [Compound 7 Diastereomer 1] | 250 to 1000 | > 50000 | 91% | 96 |  |  | 1148 pmol · hr/mill cells |  | 
7 | CCOC(=O)C(C)(C)NP1(=O)OC[C@H]2O[C@@H](n3cnc4c(OCC)nc(N)nc43)[C@](C)(F)[C@@H]2O1 (single isomer, unassigned) [Compound 7 Diastereomer 2] |  |  | 102% | 36 |  |  | 830 pmol · hr/mill cells | < 250 | > 50000
8 | CCOc1nc(N)nc2c1ncn2[C@@H]1O[C@@H]2COP(=O)(N[C@@H](CC)COC(=O)C(C)C)O[C@H]2[C@@]1(C)F (single isomer, unassigned) [Compound 8 Diastereomer 1] | < 250 | > 50000 | 15% | 18 |  |  | 308 pmol · hr/mill cells |  | 
9 | CCOc1nc(N)nc2c1ncn2[C@@H]1O[C@@H]2COP(=O)(N[C@@H](CC)COC(=O)C(C)C)O[C@H]2[C@@]1(C)F (single isomer, unassigned) [Compound 8 Diastereomer 2] |  |  | 69% | 1 |  |  | 359 pmol · hr/mill cells | < 250 | > 50000
10 | CCOc1nc(N)nc2c1ncn2[C@@H]1O[C@@H]2COP(=O)(N[C@@H](C)C(=O)OC3CCCC3)O[C@H]2[C@@]1(C)F (single isomer, unassigned) [Compound 10 Diastereomer 1] | < 250 | > 50000 | 2% | 5 |  |  | 1944 pmol · hr/mill cells |  | 
11 | CCOc1nc(N)nc2c1ncn2[C@@H]1O[C@@H]2COP(=O)(N[C@@H](C)C(=O)OC3CCCC3)O[C@H]2[C@@]1(C)F (single isomer, unassigned) [Compound 10 Diastereomer 2] |  |  | 67% | 80 |  |  | 2752 pmol · hr/mill cells | < 250 | ≤ 50000
12 | CCOc1nc(N)nc2c1ncn2[C@@H]1O[C@@H]2COP(=O)(N[C@@H](C)COC(=O)C(C)C)O[C@H]2[C@@]1(C)F (stereo partly drawn) [Compound 3] | < 250 | > 50000 |  |  |  |  |  |  | 
